“And” between values parts separate entries of the source, which are not always exact repeats. Equal values may be shown once. Inconclusive results and toxic doses are left out. The calls were made as follows: active = survival T/C of 150% or more; inactive = T/C below 125% in these data.
Tested on: BDF1 mice, P388 leukemia ip, median survival T/C
Experiment: NCI In Vivo Anticancer Drug Screen. Data for tumor model P388 Leukemia (intraperitoneal) in B6D2F1 (BDF1) mice
Settings: endpoint: median survival time, higher = longer survival
Procedure, shortened: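 Vehicle-dosed animals serve as the reference; survival of compound-dosed, tumour-implanted mice is divided by it.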

[1] = dose: 100.0 mg/kg/injection, schedule: Q01DX009 (ip), vehicle: saline with Tween-80
[2] = dose: 100.0 mg/kg/injection, schedule: Q04DX003 (ip), vehicle: saline with Tween-80
[3] = dose: 200.0 mg/kg/injection, schedule: Q01DX009 (ip), vehicle: saline with Tween-80
[4] = dose: 200.0 mg/kg/injection, schedule: Q04DX003 (ip), vehicle: saline with Tween-80
[5] = dose: 400.0 mg/kg/injection, schedule: Q04DX003 (ip), vehicle: saline with Tween-80
[6] = dose: 50.0 mg/kg/injection, schedule: Q01DX009 (ip), vehicle: saline with Tween-80
[7] = dose: 25.0 mg/kg/injection, schedule: Q01DX009 (ip), vehicle: saline
[8] = dose: 50.0 mg/kg/injection, schedule: Q01DX009 (ip), vehicle: saline
[9] = dose: 100.0 mg/kg/injection, schedule: Q01DX009 (ip), vehicle: saline

Measured: T/C

Cc1nc2c(=O)[nH]n(C)c2nc1C
inactive: [1] 97 % of control | [2] 95 % of control | [3] 97 % of control | [4] 94 % of control | [5] 99 % of control

O/C(=C\C(=S)S)c1ccc(Cl)cc1
inactive: dose: 0.39 mg/kg/injection, schedule: Q04DX003 (ip), vehicle: saline with Tween-80 100 % of control | dose: 0.78 mg/kg/injection, schedule: Q01DX009 (ip), vehicle: saline with Tween-80 97 % of control | dose: 0.78 mg/kg/injection, schedule: Q04DX003 (ip), vehicle: saline with Tween-80 92 % of control and 106 % of control (2×) | dose: 1.56 mg/kg/injection, schedule: Q01DX009 (ip), vehicle: saline with Tween-80 118 % of control | dose: 1.56 mg/kg/injection, schedule: Q04DX003 (ip), vehicle: saline with Tween-80 97 % of control and 113 % of control | dose: 3.12 mg/kg/injection, schedule: Q01DX009 (ip), vehicle: saline with Tween-80 106 % of control | dose: 3.12 mg/kg/injection, schedule: Q04DX003 (ip), vehicle: saline with Tween-80 95 % of control and 100 % of control and 120 % of control | dose: 6.25 mg/kg/injection, schedule: Q01DX009 (ip), vehicle: saline with Tween-80 112 % of control | dose: 6.25 mg/kg/injection, schedule: Q04DX003 (ip), vehicle: saline with Tween-80 88 % of control and 103 % of control | dose: 12.5 mg/kg/injection, schedule: Q01DX009 (ip), vehicle: saline with Tween-80 86 % of control

CCOC(=O)/C=C/c1ccco1
inactive: [6] 100 % of control | dose: 50.0 mg/kg/injection, schedule: Q04DX003 (ip), vehicle: saline with Tween-80 104 % of control | [1] 88 % of control | [2] 109 % of control | [3] 88 % of control | [4] 109 % of control

CCCCCCCCC(C(=O)c1ccccc1)C(O)(C(F)(F)F)C(F)(F)F (stereo not drawn)
inactive: [6] 90 % of control | [1] 95 % of control | [2] 95 % of control | [3] 109 % of control | [4] 115 % of control | [5] 115 % of control

NC(=O)C(Br)CBr (stereo not drawn)
inactive: dose: 1.5 mg/kg/injection, schedule: Q01DX009 (ip), vehicle: saline with Tween-80 103 % of control | dose: 3.0 mg/kg/injection, schedule: Q01DX009 (ip), vehicle: saline with Tween-80 98 % of control | dose: 12.0 mg/kg/injection, schedule: Q01DX009 (ip), vehicle: saline with Tween-80 107 % of control and 115 % of control | dose: 25.0 mg/kg/injection, schedule: Q01DX009 (ip), vehicle: Klucel (hydroxypropylcellulose) (HPC) 114 % of control | dose: 25.0 mg/kg/injection, schedule: Q01DX009 (ip), vehicle: saline with Tween-80 105 % of control | [7] 99 % of control | dose: 50.0 mg/kg/injection, schedule: Q01DX009 (ip), vehicle: Klucel (hydroxypropylcellulose) (HPC) 94 % of control | [8] 99 % of control | dose: 100.0 mg/kg/injection, schedule: Q01DX009 (ip), vehicle: Klucel (hydroxypropylcellulose) (HPC) 114 % of control | [9] 92 % of control

CCOC(=O)c1c[nH]c2ccc(OC)cc2c1=O
inactive: [7] 111 % of control | [8] 104 % of control | [9] 117 % of control | dose: 100.0 mg/kg/injection, schedule: Q04DX003 (ip), vehicle: saline 107 % of control | dose: 200.0 mg/kg/injection, schedule: Q01DX009 (ip), vehicle: saline 113 % of control | dose: 200.0 mg/kg/injection, schedule: Q04DX003 (ip), vehicle: saline 98 % of control | dose: 400.0 mg/kg/injection, schedule: Q01DX009 (ip), vehicle: saline 109 % of control | dose: 400.0 mg/kg/injection, schedule: Q04DX003 (ip), vehicle: saline 100 % of control

Cc1cccc(NNC(=S)Nc2ccccc2)c1
inactive: [1] 104 % of control | [3] 95 % of control | dose: 400.0 mg/kg/injection, schedule: Q01DX009 (ip), vehicle: saline with Tween-80 104 % of control
